Test results published in patent US8563542B2 (Cyclacel Limited, priority 2007, dated 2013).

How the values were obtained:
PLK1 = PLK1 (Homo sapiens, UniProt P53350); assay: PLK1 protein kinase assay (CDC25C phosphorylation, [γ-32P]-ATP); format: biochemical; settings: Table 2, PLK1 IC50; class symbols; read-out: PLK1 IC50
AA = target: T1, AA (Homo sapiens, UniProt O14965); assay: AA IC50 (Table 1; no method given); format: biochemical; settings: Table 2, AurA IC50; class symbols; read-out: AurA IC50
T1 sequence (O14965 1-403): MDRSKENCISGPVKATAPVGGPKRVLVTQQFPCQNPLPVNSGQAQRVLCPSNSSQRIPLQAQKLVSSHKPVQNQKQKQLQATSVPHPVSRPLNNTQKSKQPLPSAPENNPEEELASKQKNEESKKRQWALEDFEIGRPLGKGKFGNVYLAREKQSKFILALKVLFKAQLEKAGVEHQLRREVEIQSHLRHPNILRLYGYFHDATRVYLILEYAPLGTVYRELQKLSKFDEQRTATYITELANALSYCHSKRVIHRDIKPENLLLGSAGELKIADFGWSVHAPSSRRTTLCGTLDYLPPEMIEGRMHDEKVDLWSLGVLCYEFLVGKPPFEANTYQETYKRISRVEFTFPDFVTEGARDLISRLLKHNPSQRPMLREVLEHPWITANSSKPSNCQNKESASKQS

Sequence of PLK1 (P53350 whole entry): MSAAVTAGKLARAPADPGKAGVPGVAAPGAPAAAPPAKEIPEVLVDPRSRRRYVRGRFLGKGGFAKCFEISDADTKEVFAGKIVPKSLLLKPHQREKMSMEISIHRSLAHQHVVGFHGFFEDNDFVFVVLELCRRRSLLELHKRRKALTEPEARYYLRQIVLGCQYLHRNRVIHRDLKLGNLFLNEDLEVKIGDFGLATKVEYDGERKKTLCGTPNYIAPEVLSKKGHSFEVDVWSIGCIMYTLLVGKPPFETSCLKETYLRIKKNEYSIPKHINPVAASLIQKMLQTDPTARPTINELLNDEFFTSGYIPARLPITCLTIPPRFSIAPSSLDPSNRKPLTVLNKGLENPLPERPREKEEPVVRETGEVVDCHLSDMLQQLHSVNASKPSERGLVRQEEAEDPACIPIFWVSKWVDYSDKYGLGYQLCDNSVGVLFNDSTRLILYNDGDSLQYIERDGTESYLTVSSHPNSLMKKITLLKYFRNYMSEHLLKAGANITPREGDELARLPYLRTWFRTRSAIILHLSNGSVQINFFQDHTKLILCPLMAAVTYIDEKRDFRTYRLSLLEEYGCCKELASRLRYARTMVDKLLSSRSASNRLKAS

IC50 (PLK1)	IC50 (AA)	SMILES
< 1000 nM	< 100 nM	CN1C(=O)CCN(C2CCCC2)c2nc(Nc3ccc(NC(=O)C4CC4)cc3)ncc21 [compound 178, Cyclopropanecarboxylic acid [4-(9-cyclopentyl-5-methyl-6-oxo-6,7,8,9-tetrahydro-5H-pyrimido[4,5-b][1,4]diazepin-2-ylamino)-phenyl]-amide]
< 10000 nM	< 100 nM	Cc1cc(Nc2ncc3c(n2)N(C2CCCC2)CCC(=O)N3C)ccc1NC(=O)C1CC1 [compound 179, Cyclopropanecarboxylic acid [4-(9-cyclopentyl-5-methyl-6-oxo-6,7,8,9-tetrahydro-5H-pyrimido[4,5-b][1,4]diazepin-2-ylamino)-2-methyl-phenyl]-amide]
< 10000 nM	< 100 nM	CN1CCC(NC(=O)CCc2ccc(Nc3ncc4c(n3)N(C3CCCC3)CCC(=O)N4C)cc2)CC1 [compound 180, 3-[4-(9-Cyclopentyl-5-methyl-6-oxo-6,7,8,9-tetrahydro-5H-pyrimido[4,5-b][1,4]diazepin-2-ylamino)-phenyl]-N-(1-methyl-piperidin-4-yl)-propionamide]
< 10000 nM	< 100 nM	CN1CCC(NC(=O)Cc2ccc(Nc3ncc4c(n3)N(C3CCCC3)CCC(=O)N4C)cc2)CC1 [compound 181, 2-[4-(9-Cyclopentyl-5-methyl-6-oxo-6,7,8,9-tetrahydro-5H-pyrimido[4,5-b][1,4]diazepin-2-ylamino)-phenyl]-N-(1-methyl-piperidin-4-yl)-acetamide]
< 10000 nM	< 10000 nM	CCc1cc(C(=O)O)ccc1Nc1ncc2c(n1)N(C1CCCC1)CCC(=O)N2C [compound 192, 4-(9-Cyclopentyl-5-methyl-6-oxo-6,7,8,9-tetrahydro-5H-pyrimido[4,5-b][1,4]diazepin-2-ylamino)-3-ethyl benzoic acid]
< 100 nM	< 10000 nM	CN1CCC(NC(=O)c2ccc(Nc3ncc4c(n3)N(C3CCCC3)CCC(=O)N4C)c(F)c2)CC1 [compound 215, 4-(9-Cyclopentyl-5-methyl-6-oxo-6,7,8,9-tetrahydro-5H-pyrimido[4,5-b][1,4]diazepin-2-ylamino)-3-fluoro-N-(1-methyl-piperidin-4-yl)-benzamide]
< 100 nM	< 1000 nM	CN1C(=O)C2(CC2)CN(C2CCCC2)c2nc(Nc3ccc4[nH]ncc4c3)ncc21 [compound 227, 9-Cyclopentyl-2-(1H-indazol-5-ylamino)-5-methyl-5,7,8,9-tetrahydro-pyrimido[4,5-b][1,4]diazepin-3,1′-cyclopropane-6-one]
< 10000 nM	< 100 nM	CC(=O)Nc1ccc(Nc2ncc3c(n2)N(C2CCCC2)CCC(=O)N3C)cc1C [compound 285, N-[4-(9-Cyclopentyl-5-methyl-6-oxo-6,7,8,9-tetrahydro-5H-pyrimido[4,5-b][1,4]diazepin-2-ylamino)-2-methyl-phenyl]-acetamide]
< 10000 nM	< 100 nM	Cc1cc(Nc2ncc3c(n2)N(C2CCCC2)CCC(=O)N3C)ccc1NC(=O)C(C)(C)C [compound 287, N-[4-(9-Cyclopentyl-5-methyl-6-oxo-6,7,8,9-tetrahydro-5H-pyrimido[4,5-b][1,4]diazepin-2-ylamino)-2-methyl-phenyl]-2,2-dimethyl-propionamide]
< 1000 nM	< 100 nM	CN1C(=O)CCN(C2CCCC2)c2nc(Nc3ccc4c(c3)C=CS4(=O)=O)ncc21 [compound 289, 9-Cyclopentyl-2-(1,1-dioxo-1H-1lambda*6*- benzo[b]thiophen-5-ylamino)-5-methyl-5,7,8,9-tetrahydro-pyrimido[4,5-b][1,4]diazepin-6-one]
< 10000 nM	< 100 nM	Cc1ccc(N2CCC(=O)N(C)c3cnc(Nc4ccc5c(c4)CS(=O)(=O)C5)nc32)cc1 [compound 290, 2-(2,2-Dioxo-2,3-dihydro-1H-2lambda*6*- benzo[c]thiophen-5-ylamino)-5-methyl-9-p-tolyl-5,7,8,9-tetrahydro-pyrimido[4,5-b][1,4]diazepin-6-one]
